According to paper PMC7316778 (Nature Communications, 2020):
pIC50: −log10 of the molar value. Several values for one entry are separate records, joined by “and”; a condition that tells them apart may be missing. Equal entries are not always repeated. Where two headings read alike, the source gives them in different places.

Legend:
Experiment in all cases: SelectScreen kinase assay
FGFR4 = FGFR4 (Homo sapiens, UniProt P22455)
Method: (§1) Selectivity profiling assays were performed by the Invitrogen SelectScreen™ Services. […] The concentration of ATP was selected to be equal to the KM, unless indicated otherwise.

MAP2K6 (MKK6) = biological target: T1, MAP2K6 (MKK6) (Homo sapiens, UniProt P52564)
T1 sequence (P52564 1-334): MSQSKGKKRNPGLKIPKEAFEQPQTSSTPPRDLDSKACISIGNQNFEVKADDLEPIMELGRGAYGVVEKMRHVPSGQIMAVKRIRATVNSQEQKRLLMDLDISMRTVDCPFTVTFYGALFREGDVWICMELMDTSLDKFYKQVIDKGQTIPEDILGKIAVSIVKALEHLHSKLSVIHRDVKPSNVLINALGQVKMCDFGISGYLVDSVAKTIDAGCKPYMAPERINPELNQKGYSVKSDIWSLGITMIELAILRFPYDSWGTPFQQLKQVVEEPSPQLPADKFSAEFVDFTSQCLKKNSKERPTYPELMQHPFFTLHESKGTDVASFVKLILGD
Method: as §1

PIK3C2A (PI3K-C2 alpha) = PIK3C2A (PI3K-C2 alpha) (Homo sapiens, UniProt O00443); conditions: 1 h, 1 μM WEL028, 1 h preincubation
Method: as §1

WEE1 = WEE1 (Homo sapiens, UniProt P30291)
Sequence of WEE1 (P30291 whole entry): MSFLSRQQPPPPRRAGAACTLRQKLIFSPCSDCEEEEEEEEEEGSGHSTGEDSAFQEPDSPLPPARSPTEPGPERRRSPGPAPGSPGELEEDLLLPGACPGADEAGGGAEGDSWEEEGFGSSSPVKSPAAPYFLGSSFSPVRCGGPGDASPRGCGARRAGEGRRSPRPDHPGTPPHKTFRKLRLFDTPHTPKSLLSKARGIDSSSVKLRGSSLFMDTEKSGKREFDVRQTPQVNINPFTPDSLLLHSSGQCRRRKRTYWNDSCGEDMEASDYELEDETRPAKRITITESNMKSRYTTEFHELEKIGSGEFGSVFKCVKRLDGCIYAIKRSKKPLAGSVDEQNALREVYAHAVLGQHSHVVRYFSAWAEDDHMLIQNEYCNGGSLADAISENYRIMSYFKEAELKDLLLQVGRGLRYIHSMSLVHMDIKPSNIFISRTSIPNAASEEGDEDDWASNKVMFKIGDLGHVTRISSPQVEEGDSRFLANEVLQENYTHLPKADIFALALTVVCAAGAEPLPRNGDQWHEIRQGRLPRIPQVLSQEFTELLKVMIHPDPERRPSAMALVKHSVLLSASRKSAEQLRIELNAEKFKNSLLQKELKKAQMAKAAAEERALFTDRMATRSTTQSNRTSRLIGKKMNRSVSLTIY
Method: as §1

EPHB1 = EPHB1 (Homo sapiens, UniProt P54762)
Sequence of EPHB1 (P54762 18-984): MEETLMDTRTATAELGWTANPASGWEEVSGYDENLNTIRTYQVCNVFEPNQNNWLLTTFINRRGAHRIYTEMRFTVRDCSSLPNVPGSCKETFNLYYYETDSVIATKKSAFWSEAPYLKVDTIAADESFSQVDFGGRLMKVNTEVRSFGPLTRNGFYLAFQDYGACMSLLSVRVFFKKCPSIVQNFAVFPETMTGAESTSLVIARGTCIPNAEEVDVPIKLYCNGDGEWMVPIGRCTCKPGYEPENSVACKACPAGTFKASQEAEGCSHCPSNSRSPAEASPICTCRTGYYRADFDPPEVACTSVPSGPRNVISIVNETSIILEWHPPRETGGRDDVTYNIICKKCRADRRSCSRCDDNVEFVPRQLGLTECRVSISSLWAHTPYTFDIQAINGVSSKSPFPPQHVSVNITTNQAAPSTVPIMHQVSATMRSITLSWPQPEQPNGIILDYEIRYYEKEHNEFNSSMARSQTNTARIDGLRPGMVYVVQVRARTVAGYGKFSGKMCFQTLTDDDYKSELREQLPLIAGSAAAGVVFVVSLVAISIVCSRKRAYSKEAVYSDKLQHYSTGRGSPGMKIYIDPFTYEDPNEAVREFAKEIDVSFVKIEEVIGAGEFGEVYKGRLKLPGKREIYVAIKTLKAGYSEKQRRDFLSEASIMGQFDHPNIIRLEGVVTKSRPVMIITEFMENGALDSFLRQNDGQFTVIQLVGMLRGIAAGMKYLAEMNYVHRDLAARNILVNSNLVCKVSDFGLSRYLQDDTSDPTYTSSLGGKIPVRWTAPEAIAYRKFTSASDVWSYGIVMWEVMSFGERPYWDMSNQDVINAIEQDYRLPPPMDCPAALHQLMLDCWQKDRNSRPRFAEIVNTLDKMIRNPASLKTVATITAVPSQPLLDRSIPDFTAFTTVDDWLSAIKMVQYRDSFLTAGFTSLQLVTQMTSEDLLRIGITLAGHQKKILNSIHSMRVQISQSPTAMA
Method: as §1

ROCK1 = ROCK1 (Homo sapiens, UniProt Q13464)
Method: as §1

PRKCD (PKC delta) = PRKCD (PKC delta) (Homo sapiens, UniProt Q05655); conditions: 1 h, 1 μM WEL028, 1 h preincubation
Method: as §1

DAPK3 (ZIPK) = DAPK3 (ZIPK) (Homo sapiens, UniProt O43293); conditions: for Inhibition at 1 µM (%): DAPK3 (ZIPK), ZLYTE, ATP Km app
Sequence of DAPK3 (ZIPK) (O43293 whole entry): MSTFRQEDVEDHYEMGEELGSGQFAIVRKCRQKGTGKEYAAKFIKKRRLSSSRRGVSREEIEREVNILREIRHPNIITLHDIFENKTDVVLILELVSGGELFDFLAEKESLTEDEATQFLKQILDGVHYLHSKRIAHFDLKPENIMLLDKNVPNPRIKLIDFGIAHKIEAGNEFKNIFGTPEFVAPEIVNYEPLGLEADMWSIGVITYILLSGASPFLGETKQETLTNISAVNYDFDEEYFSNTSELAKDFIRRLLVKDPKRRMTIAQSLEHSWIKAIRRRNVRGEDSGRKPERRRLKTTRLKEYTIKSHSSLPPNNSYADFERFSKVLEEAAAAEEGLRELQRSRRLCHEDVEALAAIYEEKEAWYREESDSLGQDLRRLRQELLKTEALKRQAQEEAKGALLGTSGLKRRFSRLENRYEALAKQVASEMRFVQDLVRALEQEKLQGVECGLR
Method: as §1

PRKCN (PKD3) = PRKCN (PKD3) (Homo sapiens, UniProt O94806)
Method: as §1

PRKD1 (PKC mu) = biological target: T2, PRKD1 (PKC mu) (Homo sapiens, UniProt Q15139)
T2 sequence (Q15139 1-912): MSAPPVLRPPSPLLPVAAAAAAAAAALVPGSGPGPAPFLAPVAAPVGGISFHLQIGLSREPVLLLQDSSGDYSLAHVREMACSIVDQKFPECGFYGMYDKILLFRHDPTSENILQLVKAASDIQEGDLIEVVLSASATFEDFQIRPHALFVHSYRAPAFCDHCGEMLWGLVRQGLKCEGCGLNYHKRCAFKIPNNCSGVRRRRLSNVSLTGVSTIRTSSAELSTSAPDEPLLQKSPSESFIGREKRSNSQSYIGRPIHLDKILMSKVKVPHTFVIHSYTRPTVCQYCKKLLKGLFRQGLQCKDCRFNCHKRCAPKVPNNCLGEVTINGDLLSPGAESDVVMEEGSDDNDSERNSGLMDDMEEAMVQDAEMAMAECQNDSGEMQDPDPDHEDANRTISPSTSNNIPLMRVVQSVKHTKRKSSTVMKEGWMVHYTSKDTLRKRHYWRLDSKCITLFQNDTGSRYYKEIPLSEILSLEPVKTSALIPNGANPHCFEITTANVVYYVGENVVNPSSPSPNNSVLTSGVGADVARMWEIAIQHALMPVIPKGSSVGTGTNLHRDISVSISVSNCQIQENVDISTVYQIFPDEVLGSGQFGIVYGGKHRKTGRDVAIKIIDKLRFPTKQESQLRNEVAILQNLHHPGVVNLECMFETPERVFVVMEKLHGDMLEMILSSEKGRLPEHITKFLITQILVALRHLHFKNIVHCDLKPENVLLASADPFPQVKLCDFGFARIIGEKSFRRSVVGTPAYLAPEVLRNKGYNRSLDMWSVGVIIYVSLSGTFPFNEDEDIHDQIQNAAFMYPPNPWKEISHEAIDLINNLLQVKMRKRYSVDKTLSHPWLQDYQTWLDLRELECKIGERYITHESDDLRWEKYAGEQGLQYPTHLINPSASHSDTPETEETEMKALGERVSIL
Method: as §1

CDK4/cyclin D1 = CDK4/cyclin D1 (Homo sapiens, UniProt P11802); conditions: for Inhibition at 1 µM (%): CDK4/cyclin D1, Adapta, ATP 10
Sequence of CDK4/cyclin D1 (P11802 whole entry): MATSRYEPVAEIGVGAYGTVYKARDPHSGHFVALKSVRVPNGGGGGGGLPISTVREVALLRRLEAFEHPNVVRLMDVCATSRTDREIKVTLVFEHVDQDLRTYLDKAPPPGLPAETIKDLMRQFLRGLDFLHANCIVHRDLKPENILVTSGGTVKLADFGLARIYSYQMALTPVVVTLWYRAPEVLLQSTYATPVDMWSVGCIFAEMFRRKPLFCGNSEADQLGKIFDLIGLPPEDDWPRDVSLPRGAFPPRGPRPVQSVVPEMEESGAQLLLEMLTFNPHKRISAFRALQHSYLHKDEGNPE
Sequence of CDK4/cyclin D1 (P24385 whole entry partner): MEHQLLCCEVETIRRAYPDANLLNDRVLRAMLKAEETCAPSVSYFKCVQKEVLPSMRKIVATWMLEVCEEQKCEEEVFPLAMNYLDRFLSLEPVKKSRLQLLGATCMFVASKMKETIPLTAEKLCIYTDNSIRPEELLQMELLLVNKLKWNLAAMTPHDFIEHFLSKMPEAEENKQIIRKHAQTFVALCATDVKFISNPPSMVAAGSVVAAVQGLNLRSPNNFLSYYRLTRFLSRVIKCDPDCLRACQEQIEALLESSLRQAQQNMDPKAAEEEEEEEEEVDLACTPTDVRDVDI
Method: as §1

MYO3A (MYO3 alpha) = MYO3A (MYO3 alpha) (Homo sapiens, UniProt Q8NEV4)
Sequence of MYO3A (MYO3 alpha) (Q8NEV4 whole entry): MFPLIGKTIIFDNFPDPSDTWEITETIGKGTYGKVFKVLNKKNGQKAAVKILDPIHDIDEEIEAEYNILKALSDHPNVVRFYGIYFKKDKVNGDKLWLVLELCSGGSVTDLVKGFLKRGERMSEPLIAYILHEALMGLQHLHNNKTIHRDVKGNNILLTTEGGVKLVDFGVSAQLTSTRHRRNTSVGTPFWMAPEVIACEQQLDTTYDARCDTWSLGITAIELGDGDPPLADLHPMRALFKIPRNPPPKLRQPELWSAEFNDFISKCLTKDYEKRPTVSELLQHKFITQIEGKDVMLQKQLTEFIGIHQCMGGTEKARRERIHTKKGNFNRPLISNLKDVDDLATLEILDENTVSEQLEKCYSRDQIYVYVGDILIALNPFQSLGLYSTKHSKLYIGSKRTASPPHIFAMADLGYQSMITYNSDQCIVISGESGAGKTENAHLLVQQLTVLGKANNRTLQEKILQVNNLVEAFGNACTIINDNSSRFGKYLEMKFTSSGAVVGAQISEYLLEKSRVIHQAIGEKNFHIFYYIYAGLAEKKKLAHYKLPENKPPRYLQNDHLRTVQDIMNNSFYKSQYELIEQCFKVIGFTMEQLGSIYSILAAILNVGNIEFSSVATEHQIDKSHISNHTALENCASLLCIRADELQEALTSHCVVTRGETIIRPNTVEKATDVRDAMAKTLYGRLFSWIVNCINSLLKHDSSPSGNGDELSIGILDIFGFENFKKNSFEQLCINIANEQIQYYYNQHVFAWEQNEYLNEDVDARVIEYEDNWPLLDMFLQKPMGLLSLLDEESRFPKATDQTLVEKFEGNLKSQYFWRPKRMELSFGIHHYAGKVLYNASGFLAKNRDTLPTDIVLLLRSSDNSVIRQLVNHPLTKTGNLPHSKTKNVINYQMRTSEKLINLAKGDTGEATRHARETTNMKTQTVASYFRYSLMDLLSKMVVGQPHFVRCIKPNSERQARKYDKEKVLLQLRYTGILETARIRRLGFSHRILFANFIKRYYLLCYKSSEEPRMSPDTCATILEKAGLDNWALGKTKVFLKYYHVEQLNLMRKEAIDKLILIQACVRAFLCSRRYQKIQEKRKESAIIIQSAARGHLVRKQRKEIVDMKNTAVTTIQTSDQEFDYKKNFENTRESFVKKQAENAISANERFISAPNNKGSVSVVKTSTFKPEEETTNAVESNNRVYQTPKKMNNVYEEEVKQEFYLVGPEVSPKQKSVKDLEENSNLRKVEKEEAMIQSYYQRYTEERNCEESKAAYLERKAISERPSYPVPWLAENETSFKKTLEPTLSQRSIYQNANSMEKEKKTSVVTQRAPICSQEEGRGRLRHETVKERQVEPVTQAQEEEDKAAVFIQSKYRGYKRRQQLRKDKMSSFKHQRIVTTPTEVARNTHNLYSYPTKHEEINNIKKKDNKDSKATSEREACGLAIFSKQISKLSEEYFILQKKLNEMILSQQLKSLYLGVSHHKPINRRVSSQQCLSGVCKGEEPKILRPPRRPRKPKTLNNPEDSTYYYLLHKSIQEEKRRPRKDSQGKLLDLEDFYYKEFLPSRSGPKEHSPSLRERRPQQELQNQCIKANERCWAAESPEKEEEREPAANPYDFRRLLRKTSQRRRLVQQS
Method: as §1

[1] = 1 h, 1 μM WEL028, 1 h preincubation
[2] = 1 µM, ZLYTE, ATP Km app, listed as WEL028, 1 µM

Sequence of FGFR4 (P22455 22-802): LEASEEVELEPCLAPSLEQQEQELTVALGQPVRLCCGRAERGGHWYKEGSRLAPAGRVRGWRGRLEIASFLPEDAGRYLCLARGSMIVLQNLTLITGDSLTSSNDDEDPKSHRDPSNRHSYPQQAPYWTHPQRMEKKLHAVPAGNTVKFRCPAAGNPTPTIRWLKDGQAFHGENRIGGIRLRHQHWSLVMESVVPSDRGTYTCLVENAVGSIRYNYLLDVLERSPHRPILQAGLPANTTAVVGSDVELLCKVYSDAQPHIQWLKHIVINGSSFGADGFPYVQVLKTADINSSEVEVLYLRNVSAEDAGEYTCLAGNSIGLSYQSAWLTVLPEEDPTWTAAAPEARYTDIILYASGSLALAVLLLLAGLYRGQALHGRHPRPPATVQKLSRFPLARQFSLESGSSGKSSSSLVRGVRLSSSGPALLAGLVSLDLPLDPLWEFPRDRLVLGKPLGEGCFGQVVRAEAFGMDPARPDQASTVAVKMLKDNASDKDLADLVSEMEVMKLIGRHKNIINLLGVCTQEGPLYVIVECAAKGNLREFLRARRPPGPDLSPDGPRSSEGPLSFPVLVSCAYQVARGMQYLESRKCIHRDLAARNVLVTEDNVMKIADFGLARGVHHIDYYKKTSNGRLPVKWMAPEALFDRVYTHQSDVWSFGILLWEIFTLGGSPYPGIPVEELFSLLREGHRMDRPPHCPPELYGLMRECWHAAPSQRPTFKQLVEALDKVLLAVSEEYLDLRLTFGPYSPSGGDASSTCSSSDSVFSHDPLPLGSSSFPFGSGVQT

In the case of `C#CCOc1ccc(Nc2ncc(Cl)c(Nc3ccccc3NC(=O)C=C)n2)c(OC)c1` [Compound 6], the inhibition at 1 µM (FGFR4; [1]) was 34%, the “Inhibition at 1 µM (%)” value (FGFR4; FGFR4, 1 µM, ZLYTE, ATP Km app, listed as WEL028, 1 µM) was 38% and the inhibition at 1 µM (FGFR4; read-out: Inhibition at 1 µM (%), FGFR4, 1 µM, ZLYTE, ATP Km app) was 31%. It also gave a pIC50 (MAP2K6 (MKK6)) of 6.50, an inhibition at 1 µM (MAP2K6 (MKK6); [1]) of 73% and an inhibition at 10 µM (MAP2K6 (MKK6); 1 h, log[inhibitor] (M) -5.00, ZLYTE, ATP 100) of 92%. For the same compound, the inhibition at 3.311 µM (MAP2K6 (MKK6); 1 h, log[inhibitor] (M) -5.48, ZLYTE, ATP 100) was 96%, the inhibition at 1.122 µM (MAP2K6 (MKK6); 1 h, log[inhibitor] (M) -5.95, ZLYTE, ATP 100) was 80% and the inhibition at 0.3715 µM (MAP2K6 (MKK6); 1 h, log[inhibitor] (M) -6.43, ZLYTE, ATP 100) was 51%. It also gave an inhibition at 0.123 µM (MAP2K6 (MKK6); 1 h, log[inhibitor] (M) -6.91, ZLYTE, ATP 100) of 29%, an inhibition at 0.0138 µM (MAP2K6 (MKK6); 1 h, log[inhibitor] (M) -7.86, ZLYTE, ATP 100) of 11% and an inhibition at 0.001514 µM (MAP2K6 (MKK6); 1 h, log[inhibitor] (M) -8.82, ZLYTE, ATP 100) of 4%. The Apparent fold selectivity (MAP2K6 (MKK6); IC50 on that kinase divided by IC50 on FES^S700C) was 68 fold, the inhibition at 1 µM (MAP2K6 (MKK6); read-out: Inhibition at 1 µM (%), MAP2K6 (MKK6), 1 µM, ZLYTE, ATP 100) was 73% and the inhibition at 1 µM (PIK3C2A (PI3K-C2 alpha)) was 5%. For the same compound, the “Inhibition at 1 µM (%)” value (WEE1; 1 µM, LanthaScreen Binding) was -14%, the inhibition at 1 µM (WEE1; [1]) was -5% and the inhibition at 1 µM (EPHB1; [1]) was 0%. For the same compound, the “Inhibition at 1 µM (%)” value (EPHB1; EPHB1, 1 µM, ZLYTE, ATP Km app, listed as WEL028, 1 µM) was -1% and 1%, the “Inhibition at 1 µM (%)” value (ROCK1; [2]) was -6% and 0% and the inhibition at 1 µM (ROCK1; [1]) was -3%. For the same compound, the inhibition at 1 µM (PRKCD (PKC delta)) was 14%, the inhibition at 1 µM (DAPK3 (ZIPK); [1]) was 4% and the “Inhibition at 1 µM (%)” value (DAPK3 (ZIPK)) was 2%. The “Inhibition at 1 µM (%)” value (DAPK3 (ZIPK); listed as WEL028, 1 µM) was 5%, the inhibition at 1 µM (PRKCN (PKD3); [1]) was 31% and the inhibition at 1 µM (PRKCN (PKD3); read-out: Inhibition at 1 µM (%), PRKCN (PKD3), 1 µM, ZLYTE, ATP Km app) was 32%. For the same compound, the “Inhibition at 1 µM (%)” value (PRKD1 (PKC mu); [2]) was 9%, the inhibition at 1 µM (PRKD1 (PKC mu); [1]) was 11% and the inhibition at 1 µM (PRKD1 (PKC mu); read-out: Inhibition at 1 µM (%), 1 µM, ZLYTE, ATP Km app) was 12%. For the same compound, the inhibition at 1 µM (CDK4/cyclin D1; [1]) was -10%, the “Inhibition at 1 µM (%)” value (CDK4/cyclin D1) was -14% and the “Inhibition at 1 µM (%)” value (CDK4/cyclin D1; listed as WEL028, 1 µM) was -6%. For the same compound, the inhibition at 1 µM (MYO3A (MYO3 alpha); [1]) was 17%, the “Inhibition at 1 µM (%)” value (MYO3A (MYO3 alpha); MYO3A (MYO3 alpha), 1 µM, LanthaScreen Binding, listed as WEL028, 1 µM) was 16% and the inhibition at 1 µM (MYO3A (MYO3 alpha); read-out: Inhibition at 1 µM (%), MYO3A (MYO3 alpha), 1 µM, LanthaScreen Binding) was 18%.
